Results reported in BigSolDB 2.1.

Cc1ccc(N)c([N+](=O)[O-])c1
solubility (mole fraction)
Conditions | in ethanol | in ethyl acetate | in isopropanol | in methanol | in n-butanol | in n-propanol | in tetrachloromethane | in toluene
278.15 K | – | 0.076 | 0.0102 | 0.00863 | 0.0126 | 0.0111 | 0.00242 | 0.0118
280.65 K | – | 0.0816 | 0.0112 | 0.00933 | 0.0138 | 0.012 | 0.00265 | 0.0131
283.15 K | – | 0.087 | 0.0122 | 0.0104 | 0.0152 | 0.0132 | 0.00297 | 0.0146
285.65 K | – | 0.0933 | 0.0134 | 0.0112 | 0.0166 | 0.0143 | 0.00333 | 0.016
288.15 K | – | 0.0996 | 0.0146 | 0.0121 | 0.018 | 0.0157 | 0.00371 | 0.0176
290.65 K | – | 0.106 | 0.0161 | 0.0133 | 0.0197 | 0.017 | 0.00406 | 0.0194
293.15 K | – | 0.113 | 0.0176 | 0.0144 | 0.0214 | 0.0185 | 0.00452 | 0.0215
295.65 K | – | 0.12 | 0.0192 | 0.0156 | 0.0232 | 0.0202 | 0.00497 | 0.0236
298.15 K | – | 0.128 | 0.0209 | 0.0169 | 0.0253 | 0.0218 | 0.0055 | 0.0259
300.65 K | – | 0.136 | 0.0227 | 0.0182 | 0.0273 | 0.0237 | 0.00602 | 0.0284
303.15 K | – | 0.144 | 0.0248 | 0.0198 | 0.0297 | 0.0257 | 0.00662 | 0.0312
305.65 K | – | 0.153 | 0.0268 | 0.0213 | 0.0321 | 0.0278 | 0.00721 | 0.0343
308.15 K | – | 0.162 | 0.0293 | 0.023 | 0.0348 | – | 0.00797 | 0.0375
310.65 K | – | 0.172 | 0.0317 | – | 0.0376 | 0.0326 | 0.00876 | 0.0411
313.15 K | 0.0312 | 0.182 | 0.0346 | 0.0268 | 0.0406 | 0.0352 | 0.00963 | 0.045
315.65 K | – | – | – | – | – | – | 0.0105 | –
318.15 K | – | – | – | – | – | – | 0.0117 | –
